Measurements taken from patent US4822790A, “1-Sulfo-2-oxoazetidine derivatives and their production” (Takeda Chemical Industries, Ltd., priority 1980, dated 1989).

Columns and labels:
Type in all cases: cell-based
[1] = tested on: Staphylococcus aureus FDA209P; experiment: Antibacterial test (MIC), Staphylococcus aureus FDA209P
Text: (§1) The following is media and compounds employed in the antibacterial test.
(§2) TSA=Trypticase soy agar [Baltimore Biologicals (U.S.A.)]
(§3) B-TSA=Blood trypticase soy agar

[2] = tested on: Staphylococcus aureus 308A-1; experiment: Antibacterial test (MIC), Staphylococcus aureus 308A-1; conditions: medium TSA
Text: as §1, §2, §3

[3] = tested on: Staphylococcus aureus 1840; experiment: Antibacterial test (MIC), Staphylococcus aureus 1840; conditions: medium TSA
Text: as §1, §2, §3

[4] = tested on: Escherichia coli NIHJ JC-2; experiment: Antibacterial test (MIC), Escherichia coli NIHJ JC-2; conditions: medium TSA
Text: as §1, §2, §3

Escherichia coli 0-111 = experiment: Antibacterial test (MIC), Escherichia coli 0-111; conditions: medium TSA
Text: as §1, §2, §3

Escherichia coli T-7 = experiment: Antibacterial test (MIC), Escherichia coli T-7; conditions: medium TSA
Text: as §1, §2, §3

[5] = tested on: Citrobacter freundii IFO 12681; experiment: Antibacterial test (MIC), Citrobacter freundii IFO 12681; conditions: medium TSA
Text: as §1, §2, §3

Klebsiella pneumoniae DT = experiment: Antibacterial test (MIC), Klebsiella pneumoniae DT; conditions: medium TSA
Text: as §1, §2, §3

[6] = tested on: Enterobacter cloacae IFO 12937; experiment: Antibacterial test (MIC), Enterobacter cloacae IFO 12937; conditions: medium TSA
Text: as §1, §2, §3

[7] = tested on: Serratia marcescens IFO 12648; experiment: Antibacterial test (MIC), Serratia marcescens IFO 12648; conditions: medium TSA
Text: as §1, §2, §3

[8] = tested on: Proteus vulgaris IFO 3988; experiment: Antibacterial test (MIC), Proteus vulgaris IFO 3988; conditions: medium TSA
Text: as §1, §2, §3

[9] = tested on: Proteus mirabilis IFO 3849; experiment: Antibacterial test (MIC), Proteus mirabilis IFO 3849; conditions: medium TSA
Text: as §1, §2, §3

[10] = tested on: Proteus morganii IFO 3168; experiment: Antibacterial test (MIC), Proteus morganii IFO 3168; conditions: medium TSA
Text: as §1, §2, §3

[11] = tested on: Pseudomonas aeruginosa IFO 3455; experiment: Antibacterial test (MIC), Pseudomonas aeruginosa IFO 3455; conditions: medium TSA
Text: as §1, §2, §3

[12] = tested on: Pseudomonas aeruginosa U 31; experiment: Antibacterial test (MIC), Pseudomonas aeruginosa U 31; conditions: medium TSA
Text: as §1, §2, §3

[13] = tested on: Acinetobacter calcoaceticus IFO 13006; experiment: Antibacterial test (MIC), Acinetobacter calcoaceticus IFO 13006; conditions: medium TSA
Text: as §1, §2, §3

Candida albicans TA = experiment: Antibacterial test (MIC), Candida albicans TA; conditions: medium TSA
Text: as §1, §2, §3

[14] = tested on: Streptococcus pyogenes E-14; experiment: Antibacterial test (MIC), Streptococcus pyogenes E-14; conditions: medium B-TSA
Text: as §1, §2, §3

[15] = tested on: Streptococcus pyogenes S-8; experiment: Antibacterial test (MIC), Streptococcus pyogenes S-8; conditions: medium B-TSA
Text: as §1, §2, §3

[16] = tested on: Streptococcus mitis America; experiment: Antibacterial test (MIC), Streptococcus mitis America; conditions: medium B-TSA
Text: as §1, §2, §3

[17] = tested on: Streptococcus faecium IFO 3128; experiment: Antibacterial test (MIC), Streptococcus faecium IFO 3128; conditions: medium B-TSA
Text: as §1, §2, §3

[18] = tested on: Streptococcus pneumoniae Type I; experiment: Antibacterial test (MIC), Streptococcus pneumoniae Type I; conditions: medium B-TSA
Text: as §1, §2, §3

[19] = tested on: Corynebacterium diphtheriae Toronto; experiment: Antibacterial test (MIC), Corynebacterium diphtheriae Toronto; conditions: medium B-TSA
Text: as §1, §2, §3

[20] = tested on: Bordetella bronchiseptica Sagami; experiment: Antibacterial test (MIC), Bordetella bronchiseptica Sagami; conditions: medium B-TSA
Text: as §1, §2, §3

Q: `CCN1CCN(C(=O)N[C@@H](C(=O)NC2CN(S(=O)(=O)[O-])C2=O)c2cccs2)C(=O)C1=O.[Na+]` (stereo partly drawn) [Compound F, Sodium 3-[D-2-(4-ethyl-2,3-dioxo-1-piperazinocarboxamido)-2-thienylacetamido]-2-oxoazetidine-1-sulfonate] was tested. Which “Minimum inhibitory concentration (MIC)” value ([1]; medium B-TSA) did it give?
A: 6.25 µg/mL

Q: What about the “Minimum inhibitory concentration (MIC)” value ([1]; medium TSA) of the same compound?
A: 6.25 µg/mL

Q: What about the “Minimum inhibitory concentration (MIC)” value [2] of the same compound?
A: 6.25 µg/mL

Q: And the “Minimum inhibitory concentration (MIC)” value [3]?
A: 25 µg/mL

Q: What about the “Minimum inhibitory concentration (MIC)” value [4] of the same compound?
A: 0.78 µg/mL

Q: And the “Minimum inhibitory concentration (MIC)” value (Escherichia coli 0-111)?
A: 0.2 µg/mL

Q: What about the “Minimum inhibitory concentration (MIC)” value (Escherichia coli T-7) of the same compound?
A: > 100 µg/mL

Q: And the “Minimum inhibitory concentration (MIC)” value [5]?
A: 1.56 µg/mL

Q: And the “Minimum inhibitory concentration (MIC)” value (Klebsiella pneumoniae DT)?
A: 0.2 µg/mL

Q: And the “Minimum inhibitory concentration (MIC)” value [6]?
A: 50 µg/mL

Q: What about the “Minimum inhibitory concentration (MIC)” value [7] of the same compound?
A: 1.56 µg/mL

Q: What about the “Minimum inhibitory concentration (MIC)” value [8] of the same compound?
A: < 0.1 µg/mL

Q: What about the “Minimum inhibitory concentration (MIC)” value [9] of the same compound?
A: 0.78 µg/mL

Q: And the “Minimum inhibitory concentration (MIC)” value [10]?
A: 12.5 µg/mL

Q: What about the “Minimum inhibitory concentration (MIC)” value [11] of the same compound?
A: 6.25 µg/mL

Q: And the “Minimum inhibitory concentration (MIC)” value [12]?
A: > 100 µg/mL

Q: What about the “Minimum inhibitory concentration (MIC)” value [13] of the same compound?
A: 25 µg/mL

Q: And the “Minimum inhibitory concentration (MIC)” value (Candida albicans TA)?
A: > 100 µg/mL

Q: What about the “Minimum inhibitory concentration (MIC)” value [14] of the same compound?
A: 3.13 µg/mL

Q: What about the “Minimum inhibitory concentration (MIC)” value [15] of the same compound?
A: 3.13 µg/mL

Q: And the “Minimum inhibitory concentration (MIC)” value [16]?
A: 25 µg/mL

Q: And the “Minimum inhibitory concentration (MIC)” value [17]?
A: > 100 µg/mL

Q: What about the “Minimum inhibitory concentration (MIC)” value [18] of the same compound?
A: 6.25 µg/mL

Q: What about the “Minimum inhibitory concentration (MIC)” value [19] of the same compound?
A: 0.78 µg/mL

Q: And the “Minimum inhibitory concentration (MIC)” value [20]?
A: > 100 µg/mL

Q: What does the source list for `CCCCCCCCN1CCN(C(=O)NC(C(=O)NC2CN(S(=O)(=O)[O-])C2=O)c2cccs2)C(=O)C1=O.[Na+]` (stereo not shown) [Compound J, Sodium 3-[2-(4-n-octyl-2,3-dioxo-1-piperazinocarboxamido)-2-thienylacetamido]-2-oxoazetidine-1-sulfonate]?
A: Minimum inhibitory concentration (MIC) ([1]; medium B-TSA): 3.13 µg/mL; Minimum inhibitory concentration (MIC) ([1]; medium TSA): 1.56 µg/mL; Minimum inhibitory concentration (MIC) [2]: 1.56 µg/mL; Minimum inhibitory concentration (MIC) [3]: 6.25 µg/mL; Minimum inhibitory concentration (MIC) [4]: 3.13 µg/mL; Minimum inhibitory concentration (MIC) (Escherichia coli T-7): > 100 µg/mL; Minimum inhibitory concentration (MIC) [5]: 3.13 µg/mL; Minimum inhibitory concentration (MIC) (Klebsiella pneumoniae DT): 1.56 µg/mL; Minimum inhibitory concentration (MIC) [6]: 6.25 µg/mL; Minimum inhibitory concentration (MIC) [7]: 1.56 µg/mL; Minimum inhibitory concentration (MIC) [8]: 1.56 µg/mL; Minimum inhibitory concentration (MIC) [9]: 3.13 µg/mL; Minimum inhibitory concentration (MIC) [10]: 1.56 µg/mL; Minimum inhibitory concentration (MIC) [11]: 6.25 µg/mL; Minimum inhibitory concentration (MIC) [12]: 25 µg/mL; Minimum inhibitory concentration (MIC) [13]: 6.25 µg/mL; Minimum inhibitory concentration (MIC) (Candida albicans TA): > 100 µg/mL; Minimum inhibitory concentration (MIC) [14]: 1.56 µg/mL; Minimum inhibitory concentration (MIC) [15]: 1.56 µg/mL; Minimum inhibitory concentration (MIC) [16]: 25 µg/mL; Minimum inhibitory concentration (MIC) [17]: > 100 µg/mL; Minimum inhibitory concentration (MIC) [18]: 1.56 µg/mL; Minimum inhibitory concentration (MIC) [19]: 0.78 µg/mL; Minimum inhibitory concentration (MIC) [20]: > 100 µg/mL
